The test system of this test is broiler chickens (Ross 308). Nature of the test: Broiler chicken specification test, composition containing erythritol (noise and high temperature stress). Type of test: in vivo. The text has this: To investigate the influence of composition containing erythritol on high temperature stress reduction in summer season, 1,280 broiler chickens (Ross 308; male and female chickens) with average weight of 44.0 g and 1 day old were divided into eight treatment groups with 10 repetitions, and then, 16 chickens were arbitrarily located in total 80 fences, thereby performing breeding tests. The mixing rates represent weight ratios, and additives by treatment group are post-formulated in a farm. The erythritol (99%) used in the formulation was purchased at Vision Pharmalab Co., Ltd., and the beta-glucan was used with Biolife (ENT Co., Ltd., 40 to 50% beta-glucan content) used in the fourth embodiment of the present invention. • Control group (CON): Formulated feed • E: Formulated feed+0.02% erythritol • B: Formulated feed+0.02% beta-glucan • L: Formulated feed+0.02% lipidol • E+B: Formulated feed+0.02% erythritol+0.02% beta-glucan • E+L: Formulated feed+0.02% erythritol+0.02% lipidol • B+L: Formulated feed+0.02% beta-glucan+0.02% lipidol • E+B+L: Formulated feed+0.02% erythritol+0.02% beta-glucan+0.02% lipidol
The feed and water were sufficiently supplied and freely fed. So as to cause stress, 80 to 100 dB noise was produced two times per a day for ten minutes, and to cause high temperature stress, Temperature-Humidity Index (THI) as shown in FIG. 4 was kept.
The weights and feed intake were measured on week 1, week 3, and week 5 to calculate weight gain per day, feed intake per day, and feed conversion ratios (FCR), and the calculated results are listed in Table 6, together with mortality rates.

Marks after values point to notes of the source that are not given here.

For the compound `OC[C@@H](O)[C@@H](O)CO` [E, erythritol], for the setting “Step 1 (1~7 days of age)”, the Feed conversion ratio is recorded as 1.36, the Feed intake came to 19.4 g/day, the Mortality rate was 0.0% and the Weight gain turned out to be 14.3 g/day. For the setting “Step 1 (1~7 days of age), 0.02% of each additive in formulated feed”, the Weight stood at 144.0 g. Besides, where the note is “Step 2 (8~21 days of age)”, the Feed conversion ratio is listed as 1.74^a, the Feed intake was found to be 69.3 g/day, the Mortality rate amounted to 1.3% and the Weight is on record as 705.4^e g. Moreover, the Weight gain (Step 2 (8~21 days of age)) is given as 40.1^d g/day. For the same compound, under “Step 3 (22~35 days of age)”, the Feed conversion ratio was found to be 1.88, the Feed intake is 236.9 g/day, the Mortality rate turned out to be 3.8% and the Weight is given as 1592.3^e g. Besides, the Weight gain (Step 3 (22~35 days of age)) is recorded as 126.7^c g/day. Moreover, where the note is “Total (1~35 days of age)”, the Feed conversion ratio is on record as 1.79^a, the Feed intake is 98.6^bc g/day, the Survival rate turned out to be 95.0% and the Weight gain is on record as 55.3^e g/day. In addition, the “weight gain, feed intake and feed conversion ratios compared with the control group” value (entire breeding period, result in words) is on record as “no significant difference”.
